Results published in patent US7868135B2, “Compositions of lipopeptide antibiotic derivatives and methods of use thereof” (priority 2003, dated 2011).
Read-outs that look alike come from different tables or passages of the source. Starred links: 1 amine or outer side, 2 acyl side, 3 side chain; linkers in the order of their positions; H or OH if unused. Positions of bridges follow the written chain, without caps; N, C: chain ends. Non-standard residues stand in square brackets, D forms with d. Residues, ends and D or L forms follow the SMILES beside them. ξ: configuration not given here. *: point of attachment. ξAbu(βξ-NH2) = CC(N[*:3])C(N[*:1])C(=O)[*:2]; X7 = CC(NC(=O)C1CCNCC1)C(N[*:1])C(=O)[*:2]; Pentadecanoyl = CCCCCCCCCCCCCCC(=O)*; ξAsp(βξ-Me) = CC(C(=O)O)C(N)C(=O)O; X12 = O=C(c1ccc(NN[*:1])cc1)[*:2]; ξAbu(3ξ-NH2) = CC(N)C(N)C(=O)O; Lauroyl = CCCCCCCCCCCC(=O)*; Pip = O=C(O)[CH]1CCCCN1

Tested on: Staphylococcus aureus (MSSA)
Experimental: (“Approved Standard M7-A3”).
The antimicrobial lipopeptide derivatives described herein were tested for antimicrobial activity against Gram-positive bacteria as follows. The minimum inhibitory concentrations (MIC) of the antimicrobial lipopeptide derivatives of the invention were determined using NCCLS guidelines M7-A6 (2003) with a slight modification in that doubling serial dilutions were used to dilute the test compounds. The broth phase microdilution method was used. Isolated colonies of Staphylococcus aureus (MSSA) from an 18-24 hour blood agar plate cultures were used to inoculate cation adjusted Mueller-Hinton broth (CAMHB) supplemented with 0.625 mM calcium. […] A negative control containing media alone and a positive growth control containing bacteria with media alone were also included. MICs were determined after incubating the plates at about 37° C. for 24 hours. […] In Tables 1 to 16, R is the core cyclic peptide of amphomycin or aspartocin, which can be in the form of a β-isomer, an anhydro, a dianhydro, or any combination thereof. […] Furthermore, a person of skill in the art will appreciate that all the pounds, or groups of compounds, derived from the various combinations of and substituents shown in Tables 1 to 16, are disclosed by the present the same extent as if each compound or group of compounds was set forth individually.

Row | SMILES | MIC (24 h) [µg/mL] | MIC (S. aureus (MSSA), CAMHB supplemented with 0.625 mM calcium, 24 hours at about 37° C., a range = compound tested multiple times)
1 | CCCCCCCCCCCCCCC(=O)NC(CC(=O)O)C(=O)NC1C(=O)N2CCCCC2C(=O)NC(C(C)C(=O)O)C(=O)NC(CC(=O)O)C(=O)NCC(=O)NC(CC(=O)O)C(=O)NCC(=O)NC(C(C)NC(=O)[C@@H](N)CCCCN)C(=O)NC(C(C)C)C(=O)N2CCCC2C(=O)NC1C (single isomer, unassigned) [Compound 129, C15-Amphomycin-9-Lys] | 1 | –
2 | CCCCCCCCCC(=O)NC(CC(=O)O)C(=O)NC1C(=O)N2CCCCC2C(=O)NC(C(C)C(=O)O)C(=O)NC(CC(=O)O)C(=O)NCC(=O)NC(CC(=O)O)C(=O)NCC(=O)NC(C(C)N)C(=O)NC(C(C)C)C(=O)N2CCCC2C(=O)NC1C (stereo not shown) [Compound 6, C10-Amphomycin] | 32 to 64 | –
3 | CCCCCCCCCCC(=O)NC(CC(=O)O)C(=O)NC1C(=O)N2CCCCC2C(=O)NC(C(C)C(=O)O)C(=O)NC(CC(=O)O)C(=O)NCC(=O)NC(CC(=O)O)C(=O)NCC(=O)NC(C(C)N)C(=O)NC(C(C)C)C(=O)N2CCCC2C(=O)NC1C (stereo not shown) [Compound 7, C11-Amphomycin] | 32 to 64 | –
4 | CCCCCCCCCCCCCC(=O)NC(CC(=O)O)C(=O)NC1C(=O)N2CCCCC2C(=O)NC(C(C)C(=O)O)C(=O)NC(CC(=O)O)C(=O)NCC(=O)NC(CC(=O)O)C(=O)NCC(=O)NC(C(C)N)C(=O)NC(C(C)C)C(=O)N2CCCC2C(=O)NC1C (stereo not shown) [Compound 10, C14-Amphomycin] | 1 | –
5 | CCCCCCCCCCOc1ccc(C(=O)NC(CC(=O)O)C(=O)NC2C(=O)N3CCCCC3C(=O)NC(C(C)C(=O)O)C(=O)NC(CC(=O)O)C(=O)NCC(=O)NC(CC(=O)O)C(=O)NCC(=O)NC(C(C)N)C(=O)NC(C(C)C)C(=O)N3CCCC3C(=O)NC2C)cc1 (stereo not shown) [Compound 18, CH3—(CH2)9—O-p-Ph-C(═O)-Amphomycin] | 0.5 to 1 | –
6 | CCCCCCCCOc1ccc(C(=O)NC(CC(=O)O)C(=O)NC2C(=O)N3CCCCC3C(=O)NC(C(C)C(=O)O)C(=O)NC(CC(=O)O)C(=O)NCC(=O)NC(CC(=O)O)C(=O)NCC(=O)NC(C(C)N)C(=O)NC(C(C)C)C(=O)N3CCCC3C(=O)NC2C)cc1 (stereo not shown) [Compound 19, CH3—(CH2)7—O-p-Ph-C(═O)-Amphomycin] | 0.5 | –
7 | CCCCCCCCCCCCCC(=O)NC(CC(=O)O)C(=O)NC1C(=O)N2CCCCC2C(=O)NC(C(C)C(=O)O)C(=O)NC(CC(=O)O)C(=O)NCC(=O)NC(CC(=O)O)C(=O)NCC(=O)NC(C(C)NC(=O)CN)C(=O)NC(C(C)C)C(=O)N2CCCC2C(=O)NC1C (stereo not shown) [Compound 23, C14-Amphomycin-9-Gly] | – | 23/8-16 μg/mL
8 | CCCCCCCCCCCCCCC(=O)NC(CC(=O)O)C(=O)NC1C(=O)N2CCCCC2C(=O)NC(C(C)C(=O)O)C(=O)NC(CC(=O)O)C(=O)NCC(=O)NC(CC(=O)O)C(=O)NCC(=O)NC(C(C)NC(=O)C2CCNCC2)C(=O)NC(C(C)C)C(=O)N2CCCC2C(=O)NC1C (stereo not drawn) [Compound 26, C15-Amphomycin-9-Ina] (Pentadecanoyl-D[ξAbu(βξ-NH2)][Pip][ξAsp(βξ-Me)]DGDG[X7]VP; lactam 2-C; configuration not given here) | 4 | –
9 | CCCCCCCCCCCCCCC(=O)NC(CC(=O)O)C(=O)NC1C(=O)N2CCCCC2C(=O)NC(C(C)C(=O)O)C(=O)NC(CC(=O)O)C(=O)NCC(=O)NC(CC(=O)O)C(=O)NCC(=O)NC(C(C)NC(=O)[C@@H](N)Cc2ccc([N+](=O)[O-])cc2)C(=O)NC(C(C)C)C(=O)N2CCCC2C(=O)NC1C (stereo partly shown) [Compound 27, C15-Amphomycin-9-(P—NO2-Phe)] | 32 to 64 | –
10 | CCCCCCCCCCCCCCC(=O)NC(CC(=O)O)C(=O)NC1C(=O)N2CCCCC2C(=O)NC(C(C)C(=O)O)C(=O)NC(CC(=O)O)C(=O)NCC(=O)NC(CC(=O)O)C(=O)NCC(=O)NC(C(C)NC(=O)[C@@H](N)Cc2ccc(F)cc2)C(=O)NC(C(C)C)C(=O)N2CCCC2C(=O)NC1C (stereo partly shown) [Compound 30, C15-Amphomycin-9-(P—F-Phe)] | 32 to 64 | –
11 | CCCCCCCCCCCCCCC(=O)NC(CC(=O)O)C(=O)NC1C(=O)N2CCCCC2C(=O)NC(C(C)C(=O)O)C(=O)NC(CC(=O)O)C(=O)NCC(=O)NC(CC(=O)O)C(=O)NCC(=O)NC(C(C)NC(=O)[C@@H](N)CCc2ccccc2)C(=O)NC(C(C)C)C(=O)N2CCCC2C(=O)NC1C (stereo partly shown) [Compound 32, C15-Amphomycin-9-hPhe] | 8 | –
12 | CCCCCCCCCCCCCCC(=O)NC(CC(=O)O)C(=O)NC1C(=O)N2CCCCC2C(=O)NC(C(C)C(=O)O)C(=O)NC(CC(=O)O)C(=O)NCC(=O)NC(CC(=O)O)C(=O)NCC(=O)NC(C(C)NC(=O)CNC(=O)CNC(=O)CN)C(=O)NC(C(C)C)C(=O)N2CCCC2C(=O)NC1C (stereo not drawn) [Compound 33, C15-Amphomycin-9-Gly-Gly-Gly] | 0.5 to 1 | –
13 | CCCCCCCCCCCCCCC(=O)NC(CC(=O)O)C(=O)NC1C(=O)N2CCCCC2C(=O)NC(C(C)C(=O)O)C(=O)NC(CC(=O)O)C(=O)NCC(=O)NC(CC(=O)O)C(=O)NCC(=O)NC(C(C)NC(=O)[C@@H](N)[C@@H](C)CC)C(=O)NC(C(C)C)C(=O)N2CCCC2C(=O)NC1C (stereo partly shown) [Compound 36, C15-Amphomycin-9-Ile] | 8 to 16 | –

Results, then the molecule that gave them:

Row | MIC (24 h) [µg/mL] | MIC (S. aureus (MSSA), CAMHB supplemented with 0.625 mM calcium, 24 hours at about 37° C., a range = compound tested multiple times) | SMILES
14 | 16 | – | CCCCCCCCCCCCCCC(=O)NC(CC(=O)O)C(=O)NC1C(=O)N2CCCCC2C(=O)NC(C(C)C(=O)O)C(=O)NC(CC(=O)O)C(=O)NCC(=O)NC(CC(=O)O)C(=O)NCC(=O)NC(C(C)NC(=O)[C@@H](N)CCCCN)C(=O)NC(C(C)C)C(=O)N2CCCC2C(=O)NC1C (single isomer, unassigned) [Compound 172, C15-Amphomycin-9-Lys]
15 | 16 to 32 | – | CCCCCCCCCCCCCCC(=O)NC(CC(=O)O)C(=O)NC1C(=O)N2CCCCC2C(=O)NC(C(C)C(=O)O)C(=O)NC(CC(=O)O)C(=O)NCC(=O)NC(CC(=O)O)C(=O)NCC(=O)NC(C(C)NC(=O)[C@@H](N)CC(C)C)C(=O)NC(C(C)C)C(=O)N2CCCC2C(=O)NC1C (stereo partly shown) [Compound 5, C15-Amphomycin-9-Leu]
16 | 4 to 8 | – | CCCCCCCCCCCC(=O)NC(CC(=O)O)C(=O)NC1C(=O)N2CCCCC2C(=O)NC(C(C)C(=O)O)C(=O)NC(CC(=O)O)C(=O)NCC(=O)NC(CC(=O)O)C(=O)NCC(=O)NC(C(C)N)C(=O)NC(C(C)C)C(=O)N2CCCC2C(=O)NC1C (stereo not shown) [Compound 8, C12-Amphomycin]
17 | 0.5 to 1 | – | CCCCCCCCCCCCC(=O)NC(CC(=O)O)C(=O)NC1C(=O)N2CCCCC2C(=O)NC(C(C)C(=O)O)C(=O)NC(CC(=O)O)C(=O)NCC(=O)NC(CC(=O)O)C(=O)NCC(=O)NC(C(C)N)C(=O)NC(C(C)C)C(=O)N2CCCC2C(=O)NC1C (stereo not shown) [Compound 9, C13-Amphomycin]
18 | 2 | – | CCCCCCCCCCCCCCCCCC(=O)NC(CC(=O)O)C(=O)NC1C(=O)N2CCCCC2C(=O)NC(C(C)C(=O)O)C(=O)NC(CC(=O)O)C(=O)NCC(=O)NC(CC(=O)O)C(=O)NCC(=O)NC(C(C)N)C(=O)NC(C(C)C)C(=O)N2CCCC2C(=O)NC1C (stereo not shown) [Compound 13, C18-Amphomycin]
19 | 1 | – | CCCCCCCCCCCC(=O)NNc1ccc(C(=O)NC(CC(=O)O)C(=O)NC2C(=O)N3CCCCC3C(=O)NC(C(C)C(=O)O)C(=O)NC(CC(=O)O)C(=O)NCC(=O)NC(CC(=O)O)C(=O)NCC(=O)NC(C(C)N)C(=O)NC(C(C)C)C(=O)N3CCCC3C(=O)NC2C)cc1 (stereo not drawn) [Compound 21, C12-p-Hydrazinobenzoic Acid-Amphomycin] (Lauroyl-[X12]D[ξAbu(βξ-NH2)][Pip][ξAsp(βξ-Me)]DGDG[ξAbu(3ξ-NH2)]VP; lactam 3-C; configuration not given here)
20 | 1 | – | CCCCCCCCCCCCCCC(=O)NC(CC(=O)O)C(=O)NC1C(=O)N2CCCCC2C(=O)NC(C(C)C(=O)O)C(=O)NC(CC(=O)O)C(=O)NCC(=O)NC(CC(=O)O)C(=O)NCC(=O)NC(C(C)NC(=O)CCCCCN)C(=O)NC(C(C)C)C(=O)N2CCCC2C(=O)NC1C (stereo not shown) [Compound 25, C15-Amphomycin-9-Ahx]
21 | 2 | – | CCCCCCCCCCCCCCC(=O)NC(CC(=O)O)C(=O)NC1C(=O)N2CCCCC2C(=O)NC(C(C)C(=O)O)C(=O)NC(CC(=O)O)C(=O)NCC(=O)NC(CC(=O)O)C(=O)NCC(=O)NC(C(C)NC(=O)CNC(=O)[C@@H](N)Cc2ccccc2)C(=O)NC(C(C)C)C(=O)N2CCCC2C(=O)NC1C (stereo partly shown) [Compound 28, C15-Amphomycin-9-Gly-Phe]
22 | 1 | – | CCCCCCCCCCCCCCC(=O)NC(CC(=O)O)C(=O)NC1C(=O)N2CCCCC2C(=O)NC(C(C)C(=O)O)C(=O)NC(CC(=O)O)C(=O)NCC(=O)NC(CC(=O)O)C(=O)NCC(=O)NC(C(C)NC(=O)[C@@H](N)CCC(=O)O)C(=O)NC(C(C)C)C(=O)N2CCCC2C(=O)NC1C (stereo partly shown) [Compound 29, C15-Amphomycin-9-Glu]
23 | 16 | – | CCCCCCCCCCCCCCC(=O)NC(CC(=O)O)C(=O)NC1C(=O)N2CCCCC2C(=O)NC(C(C)C(=O)O)C(=O)NC(CC(=O)O)C(=O)NCC(=O)NC(CC(=O)O)C(=O)NCC(=O)NC(C(C)NC(=O)[C@@H](N)CC2CCCCC2)C(=O)NC(C(C)C)C(=O)N2CCCC2C(=O)NC1C (stereo partly drawn) [Compound 31, C15-Amphomycin-9-(β-Cha)]
24 | 32 to 64 | – | CCCCCCCCCCCCCCC(=O)NC(CC(=O)O)C(=O)NC1C(=O)N2CCCCC2C(=O)NC(C(C)C(=O)O)C(=O)NC(CC(=O)O)C(=O)NCC(=O)NC(CC(=O)O)C(=O)NCC(=O)NC(C(C)NC(=O)CCCCCCCCCCN)C(=O)NC(C(C)C)C(=O)N2CCCC2C(=O)NC1C (stereo not shown) [Compound 34, C15-Amphomycin-9-C(═O)—(CH2)10—NH2]
25 | 8 to 16 | – | CCCCCCCCCCCCCCC(=O)NC(CC(=O)O)C(=O)NC1C(=O)N2CCCCC2C(=O)NC(C(C)C(=O)O)C(=O)NC(CC(=O)O)C(=O)NCC(=O)NC(CC(=O)O)C(=O)NCC(=O)NC(C(C)NC(=O)[C@@H](N)CC#N)C(=O)NC(C(C)C)C(=O)N2CCCC2C(=O)NC1C (stereo partly drawn) [Compound 35, C15-Amphomycin-9-(β-Cyano-Ala)]
